Patent US9006450B2 (Boehringer Ingelheim International GmbH, priority 2010, dated 2015)
pIC50: −log10 of the molar value.

Target: T1, human ACC2 (Homo sapiens, UniProt O00763)
T1 construct: made in house; host or cells: insect cells (baculoviral expression system)
Experiment: ACC2 assay, spectrophotometric 384 well assay (NADH-linked, coupled lactate dehydrogenase/pyruvate kinase)
Type: biochemical
Conditions: ACC2 assay, hACC2 construct lacking 128 N-terminal amino acids, 25° C., 340 nm; read-out: IC50
Outline: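 ADP output tracked via pyruvate kinase/lactate dehydrogenase NADH oxidation, slope at 340 nm over 15 min, 25° C, with 500 μM ATP and 200 μM each acetyl-CoA and NADH. Enzyme: insect-cell-expressed human ACC2, N-terminal 128 residues deleted; pH 7.5 Tris with citrate, KHCO3. IC50 from four-parameter regression versus vehicle and no-acetyl-CoA controls.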

T1 sequence (O00763 129-2458 limits assumed): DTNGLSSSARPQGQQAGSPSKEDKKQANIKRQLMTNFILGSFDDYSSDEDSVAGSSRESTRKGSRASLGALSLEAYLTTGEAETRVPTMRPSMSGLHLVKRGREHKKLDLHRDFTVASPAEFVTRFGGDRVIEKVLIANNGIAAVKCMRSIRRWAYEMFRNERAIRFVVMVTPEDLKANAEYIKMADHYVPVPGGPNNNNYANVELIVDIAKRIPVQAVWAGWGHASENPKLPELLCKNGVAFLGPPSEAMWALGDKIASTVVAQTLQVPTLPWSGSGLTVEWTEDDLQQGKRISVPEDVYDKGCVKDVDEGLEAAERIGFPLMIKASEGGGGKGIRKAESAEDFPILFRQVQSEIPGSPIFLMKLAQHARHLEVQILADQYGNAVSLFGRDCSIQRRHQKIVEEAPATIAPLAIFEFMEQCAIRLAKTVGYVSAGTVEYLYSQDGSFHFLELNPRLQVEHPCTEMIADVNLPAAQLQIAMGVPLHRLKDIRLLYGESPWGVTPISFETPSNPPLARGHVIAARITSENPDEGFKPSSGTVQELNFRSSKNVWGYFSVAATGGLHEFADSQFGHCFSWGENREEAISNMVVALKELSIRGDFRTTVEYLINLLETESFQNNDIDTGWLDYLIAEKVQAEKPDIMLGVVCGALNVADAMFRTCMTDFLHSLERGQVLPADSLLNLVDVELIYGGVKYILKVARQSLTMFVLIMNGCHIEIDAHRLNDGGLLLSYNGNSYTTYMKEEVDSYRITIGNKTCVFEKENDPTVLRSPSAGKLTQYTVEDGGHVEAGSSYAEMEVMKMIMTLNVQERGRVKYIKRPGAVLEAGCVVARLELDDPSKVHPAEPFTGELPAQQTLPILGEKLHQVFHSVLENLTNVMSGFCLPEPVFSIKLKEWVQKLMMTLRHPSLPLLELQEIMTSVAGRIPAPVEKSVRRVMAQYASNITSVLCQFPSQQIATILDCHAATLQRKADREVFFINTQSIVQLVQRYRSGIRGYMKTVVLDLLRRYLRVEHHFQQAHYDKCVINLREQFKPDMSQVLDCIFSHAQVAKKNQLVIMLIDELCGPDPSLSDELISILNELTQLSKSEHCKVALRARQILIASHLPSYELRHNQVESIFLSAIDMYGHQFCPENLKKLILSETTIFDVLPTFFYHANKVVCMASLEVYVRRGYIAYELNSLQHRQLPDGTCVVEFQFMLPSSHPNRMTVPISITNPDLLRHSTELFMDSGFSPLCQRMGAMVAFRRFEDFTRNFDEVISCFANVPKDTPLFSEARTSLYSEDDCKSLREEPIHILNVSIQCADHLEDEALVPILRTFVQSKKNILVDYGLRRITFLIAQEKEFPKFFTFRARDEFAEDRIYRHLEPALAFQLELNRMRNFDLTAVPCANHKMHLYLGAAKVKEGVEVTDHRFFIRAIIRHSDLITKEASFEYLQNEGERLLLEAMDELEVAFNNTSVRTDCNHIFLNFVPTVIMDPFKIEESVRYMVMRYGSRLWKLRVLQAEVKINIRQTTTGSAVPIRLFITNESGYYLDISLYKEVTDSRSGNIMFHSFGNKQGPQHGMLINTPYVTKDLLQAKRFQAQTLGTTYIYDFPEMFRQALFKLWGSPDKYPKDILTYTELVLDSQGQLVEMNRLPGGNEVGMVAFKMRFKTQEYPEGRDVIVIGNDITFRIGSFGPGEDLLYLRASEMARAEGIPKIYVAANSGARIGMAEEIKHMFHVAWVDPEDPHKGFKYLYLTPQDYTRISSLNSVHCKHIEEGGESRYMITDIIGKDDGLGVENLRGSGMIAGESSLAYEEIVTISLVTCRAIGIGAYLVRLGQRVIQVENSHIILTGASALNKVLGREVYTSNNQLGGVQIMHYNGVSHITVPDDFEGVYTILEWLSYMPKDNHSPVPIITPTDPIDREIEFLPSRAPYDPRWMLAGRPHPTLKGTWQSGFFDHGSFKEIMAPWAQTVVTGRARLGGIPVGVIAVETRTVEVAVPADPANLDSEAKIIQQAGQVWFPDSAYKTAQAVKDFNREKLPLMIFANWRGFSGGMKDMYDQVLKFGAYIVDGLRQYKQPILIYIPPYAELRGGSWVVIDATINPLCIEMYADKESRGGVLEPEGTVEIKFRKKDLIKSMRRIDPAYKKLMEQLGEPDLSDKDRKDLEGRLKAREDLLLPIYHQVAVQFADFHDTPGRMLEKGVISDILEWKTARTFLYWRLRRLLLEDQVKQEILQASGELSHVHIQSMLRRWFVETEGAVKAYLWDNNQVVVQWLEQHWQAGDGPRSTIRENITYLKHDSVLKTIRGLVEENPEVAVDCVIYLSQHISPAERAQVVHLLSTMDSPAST

| SMILES | pIC50 |
| --- | --- |
| CC(=O)N[C@@H](C)c1ccc(C2CCN(c3ncc4nc(-c5ccsc5)oc4n3)CC2)cc1 [Example 5.5] | 7.70 |
| CC(=O)N[C@@H](C)c1ccc(C2CCN(c3ncc4nc(-c5ccc(C)s5)oc4n3)CC2)cc1 [Example 5.6] | 7.22 |
| CC(=O)N[C@@H](C)c1ccc(C2CCN(c3ncc4nc(-c5cccs5)oc4n3)CC2)cc1 [Example 5.7] | 7.30 |
| CC(=O)N[C@@H](C)c1ccc(C2CCN(c3ccc(C4(S(C)(=O)=O)CC4)cn3)CC2)cc1 [Example 5.8] | 4.72 |
| CNC(=O)c1csc(N2CCC(c3ccc([C@H](C)NC(C)=O)cc3)CC2)n1 [Example 5.9] | 4.60 |
| CC(=O)N[C@@H](C)c1ccc(C2CCN(c3ncc4nc(-c5ccncc5)oc4n3)CC2)cc1 [Example 5.10] | 7.00 |
| CC(=O)N[C@@H](C)c1ccc(C2CCN(c3nccc(C(F)(F)F)c3F)CC2)cc1 [Example 5.11] | 6.82 |
| CC(=O)N[C@@H](C)c1ccc(C2CCN(c3ccc(I)cn3)CC2)cc1 [Example 5.12] | 6.66 |
| CC(=O)N[C@@H](C)c1ccc(C2CCN(c3cc(Cl)ccn3)CC2)cc1 [Example 5.13] | 5.52 |
| CCOC(=O)c1cc(C#N)c(N2CCC(c3ccc([C@H](C)NC(C)=O)cc3)CC2)nc1C(F)(F)F [Example 5.15] | 5.31 |
| CC(=O)N[C@@H](C)c1ccc(C2CCN(c3ncc(C(F)(F)F)cc3Cl)CC2)cc1 [Example 5.16] | 6.59 |
| CC(=O)N[C@@H](C)c1ccc(C2CCN(c3cc(I)ccn3)CC2)cc1 [Example 5.17] | 5.92 |
| CC(=O)N[C@@H](C)c1ccc(C2CCN(c3cccc(C#N)n3)CC2)cc1 [Example 5.19] | 6.00 |
| CC(=O)N[C@@H](C)c1ccc(C2CCN(c3nc(-c4ccccc4)cs3)CC2)cc1 [Example 5.20] | 5.92 |
| CC(=O)N[C@@H](C)c1ccc(C2CCN(c3ccc(C(=O)C4CC4)cn3)CC2)cc1 [Example 5.21] | 6.07 |
| CC(=O)N[C@@H](C)c1ccc(C2CCN(c3nc(C)cs3)CC2)cc1 [Example 5.22] | 5.64 |
| CC(=O)N[C@@H](C)c1ccc(C2CCN(c3ccc(Br)c(C)n3)CC2)cc1 [Example 5.23] | 6.38 |
| COc1ccc2nc(N3CCC(c4ccc([C@H](C)NC(C)=O)cc4)CC3)ccc2c1 [Example 5.24] | 6.00 |
| CC(=O)N[C@@H](C)c1ccc(C2CCN(c3ccc(-c4nc5ccccc5[nH]4)cn3)CC2)cc1 [Example 5.25] | 5.62 |
| CC(=O)N[C@@H](C)c1ccc(C2CCN(c3ccnc(C)n3)CC2)cc1 [Example 5.26] | 5.05 |
| CC(=O)N[C@@H](C)c1ccc(C2CCN(c3ccc4c(n3)C(=O)CC4)CC2)cc1 [Example 5.27] | 5.28 |
| CC(=O)N[C@@H](C)c1ccc(C2CCN(c3cc(C#N)ccn3)CC2)cc1 [Example 5.28] | 5.10 |
| CCOC(=O)c1ccnc(N2CCC(c3ccc([C@H](C)NC(C)=O)cc3)CC2)c1C [Example 5.29] | 6.77 |
| CC(=O)N[C@@H](C)c1ccc(C2CCN(c3ccc(C(=O)Nc4ccccc4)cn3)CC2)cc1 [Example 5.30] | 6.74 |
| CC(=O)N[C@@H](C)c1ccc(C2CCN(c3ccc4ccc(Cl)cc4n3)CC2)cc1 [Example 5.31] | 6.00 |

| SMILES | pIC50 |
| --- | --- |
| CC(=O)N[C@@H](C)c1ccc(C2CCN(c3ccc4c(Cl)cccc4n3)CC2)cc1 [Example 5.32] | 5.42 |
| CC(=O)N[C@@H](C)c1ccc(C2CCN(c3nnc(-c4ccccc4)s3)CC2)cc1 [Example 5.33] | 6.48 |
| CC(=O)N[C@@H](C)c1ccc(C2CCN(c3ccc(C(C)(F)F)cn3)CC2)cc1 [Example 5.34] | 5.49 |
| CC(=O)N[C@@H](C)c1ccc(C2CCN(c3ccc(C4(C#N)CC4)cn3)CC2)cc1 [Example 5.35] | 5.55 |
| C[C@H](NC(=O)C1CC1)c1ccc(C2CCN(c3nc(Cl)ncc3F)CC2)cc1 [Example 5.36] | 5.51 |
| C[C@H](NC(=O)C1CC1)c1ccc(C2CCN(c3ncnc(Cl)c3F)CC2)cc1 [Example 5.37] | 5.54 |
| CC(=O)N[C@@H](C)c1ccc(C2CCN(c3ncc(Br)cc3F)CC2)cc1 [Example 5.38] | 6.24 |
| CC(=O)N[C@@H](C)c1ccc(C2CCN(c3nccc(I)c3C)CC2)cc1 [Example 5.39] | 6.47 |
| CC(=O)N[C@@H](C)c1ccc(C2CCN(c3ccnc(Cl)c3C)CC2)cc1 [Example 5.40] | 6.39 |
| CC(=O)N[C@@H](C)c1ccc(C2CCN(c3cc(C)ccn3)CC2)cc1 [Example 5.41] | 5.30 |
| CC(=O)N[C@@H](C)c1ccc(C2CCN(c3cccc(C)n3)CC2)cc1 [Example 5.42] | 6.68 |
| COc1cccc(N2CCC(c3ccc([C@H](C)NC(C)=O)cc3)CC2)n1 [Example 5.43] | 6.20 |
| CC(=O)N[C@@H](C)c1ccc(C2CCN(c3ccc(-c4ccc(Cl)cc4)cn3)CC2)cc1 [Example 5.44] | 7.15 |
| CC(=O)N[C@@H](C)c1ccc(C2CCN(c3ccc(C)cn3)CC2)cc1 [Example 5.46] | 5.80 |
| CCOc1ccnc(N2CCC(c3ccc([C@H](C)NC(C)=O)cc3)CC2)c1 [Example 5.47] | 6.10 |
| CCCOc1ccnc(N2CCC(c3ccc([C@H](C)NC(C)=O)cc3)CC2)c1 [Example 5.48] | 6.38 |
| CC(=O)N[C@@H](C)c1ccc(C2CCN(c3ncccc3C)CC2)cc1 [Example 5.49] | 5.59 |
| CC(=O)N[C@@H](C)c1ccc(C2CCN(c3ncc(-c4ccccc4)c(Cl)n3)CC2)cc1 [Example 5.50, (S)—N-(1-{4-[1-(4-chloro-5-phenyl-pyrimidin-2-yl)-piperidin-4-yl]-phenyl}-ethyl)-acetamide] | 7.05 |
| CC(=O)N[C@@H](C)c1ccc(C2CCN(c3cc(F)ncc3C)CC2)cc1 [Example 5.51] | 5.32 |
| COC(=O)c1cnc(N2CCC(c3ccc([C@H](C)NC(C)=O)cc3)CC2)cn1 [Example 5.53] | 5.11 |
| COC(=O)c1cncc(N2CCC(c3ccc([C@H](C)NC(C)=O)cc3)CC2)n1 [Example 5.54] | 5.03 |
| CCOC(=O)c1cnnc(N2CCC(c3ccc([C@H](C)NC(C)=O)cc3)CC2)c1 [Example 5.55] | 5.12 |
| CC(=O)N[C@@H](C)c1ccc(C2CCN(c3nc4ccc(C)cc4s3)CC2)cc1 [Example 5.56] | 5.92 |
| CCCOc1ccc(N2CCC(c3ccc([C@H](C)NC(=O)C4CC4)cc3)CC2)nc1 [Example 5.57] | 6.64 |
| CCOc1ccc(N2CCC(c3ccc([C@H](C)NC(=O)C4CC4)cc3)CC2)nc1 [Example 5.58] | 6.07 |

| SMILES | pIC50 |
| --- | --- |
| CC(=O)N[C@@H](C)c1ccc(C2CCN(c3cc(Cl)nc(N4CCCC4)n3)CC2)cc1 [Example 5.200, (S)—N-(1-{4-[1-(6-Chloro-2-pyrrolidin-1-yl-pyrimidin-4-yl)-piperidin-4-yl]-phenyl}-ethyl)-acetamide] | 5.12 |
| CC(=O)N[C@@H](C)c1ccc(C2CCN(c3nc(N4CCCCC4)ncc3C(F)(F)F)CC2)cc1 [Example 5.201] | 6.10 |
| CCOc1ccc(N2CCC(c3ccc([C@H](C)NC(=O)CC#N)cc3)CC2)cc1 [Example 6.1, (S)-2-Cyano-N-(1-{4-[1-(4-ethoxy-phenyl)-piperidin-4-yl]-phenyl}-ethyl)-acetamide] | 6.34 |
| CCOc1ccc(N2CCC(c3ccc([C@H](C)NC(=O)c4ccco4)cc3)CC2)cc1 [Example 6.4] | 5.68 |
| CCOc1ccc(N2CCC(c3ccc([C@H](C)NC(=O)C4CCC4)cc3)CC2)cc1 [Example 6.7] | 6.11 |
| CCOc1ccc(N2CCC(c3ccc([C@H](C)NC(=O)CC)cc3)CC2)cc1 [Example 6.8] | 6.72 |
| CCOc1ccc(N2CCC(c3ccc([C@H](C)NC(=O)C4(C)CC4)cc3)CC2)cc1 [Example 6.9] | 6.82 |
| CCOc1ccc(N2CCC(c3ccc([C@H](C)NC(=O)c4cn[nH]c4)cc3)CC2)cc1 [Example 6.10] | 6.60 |
| CCOc1ccc(N2CCC(c3ccc([C@H](C)NC(=O)c4cncs4)cc3)CC2)cc1 [Example 6.11] | 6.47 |
| CCOc1ccc(N2CCC(c3ccc([C@H](C)NC(=O)c4ccno4)cc3)CC2)cc1 [Example 6.12] | 5.89 |
| CCOc1ccc(N2CCC(c3ccc([C@H](C)NC(=O)CC4CC4)cc3)CC2)cc1 [Example 6.13] | 5.96 |
| CCOc1ccc(N2CCC(c3ccc([C@H](C)NC(=O)COC)cc3)CC2)cc1 [Example 6.15] | 6.00 |
| C=CCC(=O)N[C@@H](C)c1ccc(C2CCN(c3ccc(OCC)cc3)CC2)cc1 [Example 6.16] | 6.24 |
| CCOCC(=O)N[C@@H](C)c1ccc(C2CCN(c3ccc(OCC)cc3)CC2)cc1 [Example 6.17] | 5.72 |
| CCOc1ccc(N2CCC(c3ccc([C@H](C)NC(=O)C4CC4C)cc3)CC2)cc1 (some centres unmarked) [Example 6.18] | 5.96 |
| CCOc1ccc(N2CCC(c3ccc([C@H](C)NC(=O)c4ccnnc4)cc3)CC2)cc1 [Example 6.19] | 5.82 |
| CCOc1ccc(N2CCC(c3ccc([C@H](C)NC(=O)C4(C#N)CC4)cc3)CC2)cc1 [Example 6.20] | 6.17 |
| CCOc1ccc(N2CCC(c3ccc([C@H](C)NC(=O)Cc4ccccc4)cc3)CC2)cc1 [Example 6.21] | 5.80 |
| CCOc1ccc(N2CCC(c3ccc([C@H](C)NC(=O)c4ccc[nH]4)cc3)CC2)cc1 [Example 6.22] | 6.17 |
| CCOc1ccc(N2CCC(c3ccc([C@H](C)NC(=O)C4CC4(F)F)cc3)CC2)cc1 (some centres unmarked) [Example 6.23] | 6.38 |
| CCOc1ccc(N2CCC(c3ccc([C@H](C)NC(=O)c4cnc[nH]4)cc3)CC2)cc1 [Example 6.24] | 5.41 |
| CCOc1ccc(N2CCC(c3ccc([C@H](C)NC(=O)c4cnco4)cc3)CC2)cc1 [Example 6.25] | 6.47 |
| CCOc1ccc(N2CCC(c3ccc([C@H](C)NC(=O)c4ccns4)cc3)CC2)cc1 [Example 6.26] | 6.55 |

Same assay, conditions: IC50, ACC2 assay, hACC2 construct lacking 128 N-terminal amino acids, 25° C., 340 nm

| SMILES | pIC50 |
| --- | --- |
| CCOc1ccc(N2CCC(c3ccc([C@H](C)NC(=O)CF)cc3)CC2)cc1 [Example 6.14] | 6.72 |
